Earlier results, collected in US9579404B2, “Lanthanoid complex capsule and particle contrast agents, methods of making and using thereof” (New York University, priority 2011, dated 2017).

Conditions: in H2O at 9.4 T (400 MHz), 25° C.; from Siddiqui et al. 2009

O=C([O-])CN(CCN(CC(=O)[O-])CC(=O)[O-])CCN(CC(=O)[O-])CC(=O)[O-].[Gd+3] [Gd[DTPA]^2−, gadolinium diethylenetriamine-N,N,N′,N″N″-pentaacetate]
Relaxivity (r1) per Gd: 4.6^a s^−1mM^−1
